This is an account of results in ChEMBL document CHEMBL2218064, “Structure-activity relationship data for chemical series of antagonists of the P2X7 receptor (Supplementary Bioactivity Data for publication CHEMBL1157114)”.

The target of the assay is T1, P2X purinoceptor 7 (Homo sapiens, UniProt Q99572).
T1 sequence (Q99572 whole entry): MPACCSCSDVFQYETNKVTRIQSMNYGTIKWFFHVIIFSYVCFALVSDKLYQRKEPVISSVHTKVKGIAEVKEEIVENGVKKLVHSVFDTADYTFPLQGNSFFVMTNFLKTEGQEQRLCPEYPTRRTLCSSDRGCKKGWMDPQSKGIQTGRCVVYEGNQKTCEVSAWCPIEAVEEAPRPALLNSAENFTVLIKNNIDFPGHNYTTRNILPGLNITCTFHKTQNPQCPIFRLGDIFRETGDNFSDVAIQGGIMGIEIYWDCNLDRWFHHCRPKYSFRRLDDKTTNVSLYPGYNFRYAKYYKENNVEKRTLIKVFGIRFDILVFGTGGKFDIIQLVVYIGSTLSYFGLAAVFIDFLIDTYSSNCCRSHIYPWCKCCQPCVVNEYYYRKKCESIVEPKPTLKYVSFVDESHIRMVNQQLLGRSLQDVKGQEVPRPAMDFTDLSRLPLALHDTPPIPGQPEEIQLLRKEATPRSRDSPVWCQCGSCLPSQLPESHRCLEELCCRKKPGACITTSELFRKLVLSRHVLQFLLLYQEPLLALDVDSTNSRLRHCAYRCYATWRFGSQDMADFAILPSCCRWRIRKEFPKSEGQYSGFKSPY
Put plainly: SUPPLEMENTARY: Inhibition of human P2X7 receptor assessed as inhibition of ethidium bromide accumulation. Same assay as CHEMBL1103860.
As a reminder, the IC50 is the point on the concentration scale where inhibition reaches its midpoint. On to `CN1C[C@@H](C(=O)NCc2ccc(Cl)cc2Cl)N(CC(F)(F)F)C1=O`, for which the IC50 is 15.8 nM.

`COc1cccc(N2CCN(Cc3ccc(F)cc3Cl)C(=O)C2=O)c1`: the concentration for half-maximal inhibition (IC50) was 158 nM.

As to `Cc1ccccc1N1CCN(C(=O)c2ccc(F)cc2Cl)CC1=O`, the 50% inhibitory concentration (IC50) was 501 nM.

For the compound `Cc1c(N2CCCC2)cccc1N1CCN(Cc2ccc(F)cc2Cl)C(=O)C1=O`, the IC50 was 25.1 nM.

Regarding `O=C(c1cccc(Cl)c1Cl)N1CCn2c(-c3ccccc3)cnc2C1`, the 50% inhibitory concentration (IC50) is 5.01 nM.

Regarding `CN(C)CCn1ncc(CC(=O)NCc2ccc(F)cc2Cl)c1C(F)(F)F`, the IC50 was 1260 nM.

Regarding `C[C@H]1CN(Cc2ccc(Cl)cc2Cl)C(=O)C(=O)N1c1ccccc1`, the IC50 was 158 nM.

`CCN1C(=O)NC[C@H]1C(=O)NCc1ccc(F)cc1Cl`: the IC50 is 39.8 nM.

As to `Cc1cc(Cl)cc(Cl)c1CNC(=O)[C@@H]1CNC(=O)N1C`, the IC50 was 1.26 nM.

Turning to `CN1C(=O)CC[C@@H]1C(=O)NCc1cccc(C(F)(F)F)c1F`, the IC50 was 200 nM.

`CN1C(=O)N(CC2CC2)CC1C(=O)NCc1ccc(Cl)cc1Cl` (configuration not stated): the half-maximal inhibitory concentration (IC50) is 3.16 nM.

As to `Cc1cccnc1N1C[C@@H](C(=O)NCc2ccc(Cl)cc2Cl)N(C)C1=O`, the concentration for half-maximal inhibition (IC50) is 15.8 nM.

`Cc1cc(F)cc(C)c1N1CCN(Cc2ccc(F)cc2C(F)(F)F)C(=O)C1=O`: the concentration for half-maximal inhibition (IC50) was 79.4 nM.

Turning to `Cc1ccc(N2C[C@@H](C(=O)NCc3ccc(Cl)cc3Cl)N(C)C2=O)nn1`, the IC50 was 398 nM.

`CCN1[C@H](C(=O)NCc2ccccc2Cl)CCS1(=O)=O`: the 50% inhibitory concentration (IC50) is 501 nM.

For the compound `Cc1nn(-c2ccccc2)c(C)c1CC(=O)NCc1cc(F)ccc1C(F)(F)F`, the concentration for half-maximal inhibition (IC50) is 501 nM.

In the case of `Cc1ccccc1N1CCN(C(C)c2ccc(Cl)cc2Cl)C(=O)C1=O` (configuration not stated), the concentration for half-maximal inhibition (IC50) is 31.6 nM.

Consider `CCN1C(=O)CC[C@H]1C(=O)NCc1c(F)ccc(C)c1Cl`, for which the IC50 was 158 nM.

Turning to `O=C(c1cccc(Cl)c1Cl)N1CCN(c2cccc3ccccc23)C(=O)C1`, the IC50 is 15.8 nM.

For `Cc1c(CNC(=O)[C@@H]2CCC(=O)N2C(C)C)cccc1C(F)(F)F`, the IC50 is 3.98 nM.

Turning to `Cc1nn(Cc2ccncc2)c(C)c1CC(=O)NCc1ccc(F)cc1Cl`, the half-maximal inhibitory concentration (IC50) is 316 nM.

On to `Cc1cnn(CC(F)(F)F)c1CC(=O)NCc1ccc(F)c(F)c1Cl`, for which the half-inhibitory concentration (IC50) was 50.1 nM.

For `O=C(c1ccc(Cl)cc1F)N1CCN(c2ccc(F)cc2Cl)C(=O)C1`, the IC50 is 63.1 nM.

Consider `CCC(C)N1C(=O)CC[C@@H]1C(=O)NCc1cccc(C(F)(F)F)c1Cl` (some centres not stated), for which the half-maximal inhibitory concentration (IC50) was 63.1 nM.

Consider `CN1C(=O)c2ccccc2C1C(=O)NCc1cccc(C(F)(F)F)c1Cl` (configuration not stated), for which the IC50 is 15.8 nM.

With `Cn1cccc1-c1nnc2n1CCN(C(=O)c1cccc(C(F)(F)F)c1Cl)C2`, the IC50 was 6.31 nM.

Consider `O=C1C(=O)N(c2ccc3c(c2)OCCO3)CCN1Cc1ccc(F)cc1Cl`, for which the IC50 was 200 nM.

With `O=C1C(=O)N(c2ccccc2OC(F)(F)F)CCN1Cc1ccc(F)cc1Cl`, the concentration for half-maximal inhibition (IC50) is 31.6 nM.

Consider `CCN1C(=O)CC[C@@H]1C(=O)NCc1ccc(Cl)cc1C`, for which the half-maximal inhibitory concentration (IC50) is 126 nM.

As for `O=C(c1cccc(Cl)c1Cl)N1CCn2c(Br)nnc2C1`, the IC50 was 50.1 nM.

As for `O=C(c1ccc(Cl)cc1Cl)N1CCn2c(nnc2-c2ccc(F)cn2)C1`, the IC50 was 12.6 nM.

For `Cn1ncc(Cl)c1CC(=O)NCc1ccc(F)c(F)c1Cl`, the IC50 is 31.6 nM.

As for `O=C(c1cccc(C(F)(F)F)c1Cl)N1CCN(c2cccc3ccccc23)C(=O)C1`, the IC50 was 12.6 nM.

Turning to `Cc1nn(-c2ccc(C#N)cn2)c(C)c1CC(=O)NCc1ccc(F)cc1Cl`, the IC50 was 794 nM.

Regarding `COc1ccc(Br)cc1N1CCN(Cc2ccc(F)cc2Cl)C(=O)C1=O`, the IC50 was 79.4 nM.

In the case of `O=C1CN(C(=O)c2cccc(C(F)(F)F)c2Cl)CCN1CC1CC1`, the IC50 was 12.6 nM.

On to `CN1C(=O)N(c2ncccn2)C[C@H]1C(=O)NCc1ccc(Cl)cc1Cl`, for which the IC50 was 6.31 nM.

For the compound `CN1C(=O)N(c2ncccn2)C[C@H]1C(=O)NCc1ccc(F)c(F)c1Cl`, the IC50 was 7.94 nM.

In the case of `Cn1ncc(F)c1CC(=O)NCc1ccc(F)cc1Cl`, the half-maximal inhibitory concentration (IC50) was 126 nM.

`CN1C(=O)N(c2ncccn2)C[C@H]1C(=O)NCc1ccc(F)cc1Cl`: the IC50 is 25.1 nM.

Turning to `CC(C)c1ccccc1N1CCN(C(=O)c2ccc(F)cc2Cl)CC1=O`, the IC50 is 31.6 nM.

For the compound `CCN1C(=O)CC[C@H]1C(=O)NCc1c(C)cc(C)cc1C`, the IC50 was 50.1 nM.

As for `Cc1nn(CCN(C)CCO)c(C)c1CC(=O)NCc1ccc(F)cc1Cl`, the half-maximal inhibitory concentration (IC50) is 200 nM.

Take `O=C(c1ccc(F)cc1Cl)N1CCN(c2ccc(F)cc2Cl)C(=O)C1`: the IC50 is 251 nM.

Consider `CN1C[C@@H](C(=O)NCc2ccc(F)c(C(F)(F)F)c2Cl)N(C)C1=O`, for which the IC50 was 1 nM.

On to `CCN1C(=O)CC[C@H]1C(=O)NCc1cccc(Cl)c1F`, for which the half-inhibitory concentration (IC50) was 79.4 nM.

On to `O=C1C(=O)N(c2ccccc2N2CCOCC2)CCN1Cc1ccc(F)cc1Cl`, for which the IC50 was 126 nM.

Consider `Cc1ccccc1N1CCN(C(=O)c2cccc(Cl)c2Cl)CC1=O`, for which the IC50 was 15.8 nM.

Consider `CC(C)(C)c1nnc2n1CCN(C(=O)c1cccc(C(F)(F)F)c1Cl)C2`, for which the 50% inhibitory concentration (IC50) is 200 nM.

Regarding `CC1(C(=O)NCc2ccc(Cl)cc2Cl)CCC(=O)N1C1CC1` (configuration not stated), the half-maximal inhibitory concentration (IC50) is 10 nM.

Turning to `O=C1CN(C(=O)c2cccc(C(F)(F)F)c2Cl)CCN1Cc1ccncc1`, the IC50 was 316 nM.

Regarding `CCN1[C@H](C(=O)NCc2ccc(Cl)cc2Cl)CCCS1(=O)=O`, the half-maximal inhibitory concentration (IC50) was 200 nM.

With `CCN1CCN(C(=O)c2cccc(C(F)(F)F)c2Cl)CC1=O`, the 50% inhibitory concentration (IC50) is 126 nM.

As to `O=C(c1cccc(C(F)(F)F)c1Cl)N1CCn2c(Cl)cnc2C1`, the IC50 is 12.6 nM.

Turning to `Cn1ncc(F)c1CC(=O)NCc1ccc(Cl)cc1Cl`, the concentration for half-maximal inhibition (IC50) was 50.1 nM.

On to `CN1CC(C(=O)NCc2cccc(C(F)(F)F)c2Cl)CC1=O` (configuration not stated), for which the concentration for half-maximal inhibition (IC50) was 63.1 nM.

Regarding `COc1nnc2n1CCN(C(=O)c1cccc(C(F)(F)F)c1Cl)C2`, the IC50 was 79.4 nM.

For `CCN1C(=O)OC[C@H]1C(=O)NCc1ccc(F)cc1Cl`, the IC50 is 100 nM.

On to `O=C(c1cccc(C(F)(F)F)c1Cl)N1CCn2c(-c3ncccn3)cnc2C1`, for which the IC50 was 1.58 nM.

For the compound `O=C1C(=O)N(c2cccc3ccccc23)CCN1Cc1ccc(F)cc1Cl`, the IC50 was 63.1 nM.

On to `O=C(c1ccc(F)cc1C(F)(F)F)N1CCn2c(nnc2-c2ccccn2)C1`, for which the IC50 was 31.6 nM.

Turning to `O=C(c1cccc(Cl)c1Cl)N1CCN(c2ccc(F)cc2F)C(=O)C1`, the IC50 is 126 nM.

Consider `Cc1cnn(C)c1CC(=O)NCc1ccc(F)c(F)c1Cl`, for which the concentration for half-maximal inhibition (IC50) is 31.6 nM.

Consider `O=C1C(=O)N(c2cccc3c2OCCO3)CCN1Cc1ccc(F)cc1Cl`, for which the IC50 is 251 nM.

As to `Cn1nccc1CC(=O)NCc1ccc(F)c(F)c1Cl`, the IC50 is 158 nM.

Take `Cc1ccccc1N1CCN(Cc2ccc(Cl)cc2)C(=O)C1=O`: the IC50 was 398 nM.

Regarding `Cc1nn(C2CCOCC2)c(C)c1CC(=O)NCc1ccc(F)cc1Cl`, the IC50 was 1260 nM.

In the case of `Cn1nccc1-c1nnc2n1CCN(C(=O)c1cccc(Cl)c1Cl)C2`, the half-maximal inhibitory concentration (IC50) was 25.1 nM.

As for `CC(C)CN1CCN(C(=O)c2cccc(Cl)c2Cl)CC1=O`, the IC50 is 50.1 nM.

As to `CN1C(=O)CC[C@H]1C(=O)NCc1cccc(Cl)c1F`, the 50% inhibitory concentration (IC50) was 126 nM.

On to `COc1cccc(N2CCN(Cc3ccc(F)cc3Cl)C(=O)C2=O)c1Cl`, for which the concentration for half-maximal inhibition (IC50) is 25.1 nM.

For `Cc1nn(-c2ccccc2)c(C)c1CC(=O)NCc1ccccc1Br`, the half-maximal inhibitory concentration (IC50) is 316 nM.
